# Several values for one entry are separate records, joined by “and”; a condition that tells them apart may be missing. Equal values may be shown once. Entries after “also recorded” stand apart in the source; their conditions may differ. Residues, ends and D or L forms follow the SMILES beside them.
# T1: PDZ2 domain of PTPN13 (Mus musculus, UniProt Q64512)
# T1 construct: pGEX-2 T-PDZ2 (PTPN13 residues 1347–1450); GST (N, cleaved yes); made in house; host or cells: E. coli BL21(DE3)
# T1 sequence (Q64512 1347-1450): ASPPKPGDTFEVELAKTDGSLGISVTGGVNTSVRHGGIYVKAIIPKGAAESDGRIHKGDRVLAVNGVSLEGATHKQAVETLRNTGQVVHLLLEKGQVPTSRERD
# T2: PDZ3 in PDZ2/3 tandem domain of PTPN13 (Mus musculus, UniProt Q64512)
# T2 construct: pGEX-2 T-PDZ2/3 (PTPN13 residues 1347–1580); GST (N, cleaved yes); made in house; host or cells: E. coli BL21(DE3)
# T2 sequence (Q64512 1347-1580): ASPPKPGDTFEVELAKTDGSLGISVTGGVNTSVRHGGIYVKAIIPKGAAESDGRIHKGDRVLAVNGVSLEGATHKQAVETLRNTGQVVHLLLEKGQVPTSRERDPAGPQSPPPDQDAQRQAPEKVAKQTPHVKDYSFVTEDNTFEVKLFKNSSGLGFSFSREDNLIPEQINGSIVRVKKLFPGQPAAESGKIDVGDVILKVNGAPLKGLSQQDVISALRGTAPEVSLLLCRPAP
# T3: PDZ2/3 tandem domain of PTPN13 (Mus musculus, UniProt Q64512)
# T3 construct: pGEX-2 T-PDZ2/3 (PTPN13 residues 1347–1580); GST (N, cleaved yes); made in house; host or cells: E. coli BL21(DE3)
# T3 sequence (Q64512 1347-1580): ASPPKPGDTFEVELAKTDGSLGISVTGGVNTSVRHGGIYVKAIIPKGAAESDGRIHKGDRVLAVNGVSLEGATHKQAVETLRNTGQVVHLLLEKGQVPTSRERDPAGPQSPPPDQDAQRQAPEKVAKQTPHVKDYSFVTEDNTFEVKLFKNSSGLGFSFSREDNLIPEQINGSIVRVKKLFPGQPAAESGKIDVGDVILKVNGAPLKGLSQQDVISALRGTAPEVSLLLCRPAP
# T4: PDZ2 in PDZ2/3 tandem domain of PTPN13 (Mus musculus, UniProt Q64512)
# T4 construct: pGEX-2 T-PDZ2/3 (PTPN13 residues 1347–1580); GST (N, cleaved yes); made in house; host or cells: E. coli BL21(DE3)
# T4 sequence (Q64512 1347-1580): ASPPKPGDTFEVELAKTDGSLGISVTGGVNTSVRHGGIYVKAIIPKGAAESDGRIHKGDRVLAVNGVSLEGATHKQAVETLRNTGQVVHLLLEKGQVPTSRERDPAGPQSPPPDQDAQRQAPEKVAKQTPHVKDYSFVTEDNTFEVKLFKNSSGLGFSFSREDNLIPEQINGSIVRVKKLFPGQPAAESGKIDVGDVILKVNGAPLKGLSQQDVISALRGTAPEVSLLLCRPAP
# T5: APC peptide (Homo sapiens)
# T5 chain: KRHSGSYLVTSV
# T6: PRK2 peptide (Homo sapiens)
# T6 chain: MFRDFDYIADWC
# What was measured:
# [1] = system: single PDZ2 domain of PTPN13; settings: previous study; class I (APC) and III (RIL) ligands; ref [21]; cited from earlier work
# Excerpt: Based on the results from the NMR chemical shift perturbation analysis and HADDOCK molecular docking calculations we conclude, that an allosteric effect modulates the APC-binding characteristics of PDZ2 from PTPN13 (Fig. 7). Although peptides rather than the corresponding full-length proteins have been used here, numerous studies have shown before that the last four to six carboxy-terminal amino acids are essential for ligand binding to PDZ domains.
# [2] = molecular target: T1, PDZ2 domain of PTPN13; assay: NMR titration (2D 1H-15N-HSQC chemical shift perturbation) of 15N-enriched single PDZ2 domain with C-terminal dodecapeptides; type: binding; settings: for NMR chemical shift perturbations of PDZ2 on peptide binding: 2D 1H-15N-HSQC, 298 K, pH 7.4
# Description: (§1) We have applied multidimensional heteronuclear NMR spectroscopy in order to elucidate the binding affinities of the PDZ2 single domain and the tandem domain PDZ2/3 of PTPN13 for the chemically synthesized C-terminal dodecapeptides derived from APC and PRK2. The binding characteristics were analyzed in a titration series of the dodecamer peptides and ^15N isotopically-enriched PDZ2 and PDZ2/3 samples, respectively, and by monitoring the NMR chemical shift perturbations in a series of 2D ^1H-^15N heteronuclear single quantum coherence (HSQC) spectra with increasing ligand concentrations. It could be shown that all peptides bind to the canonical binding groove of PDZ domains (Figs. 1, 2, 3 and 4).
# Bacterial expression plasmids pGEX-2 T-PDZ2 (PTPN13 residues 1347–1450), pGEX-2 T-PDZ3 (PTPN13 residues 1474–1580), and pGEX-2 T-PDZ2/3 (PTPN13 residues 1347–1580) were constructed by sub-cloning of PCR-generated PTPN13 cDNA fragments in-frame into appropriate pGEX-2 T vectors.
# (§2) NMR spectra were acquired at 298 K on Bruker DRX 600 and AVANCE III HD 700 spectrometers. Typically, NMR samples contained 0.1–0.5 mM uniformly ^13C and/or ^15N-enriched protein in PBS buffer at pH 7.4 including 10% D2O [42–44]. All data were processed with either NMRPipe and analyzed with NMR View or TopSpin (www.bruker.com). […] The interaction between PDZ2 and PDZ3 was analyzed upon titrating PDZ3 to isotopically ^15N-enriched PDZ2 at a molar ratio of 1:1 at 298 K by recording 2D ^1H-^15N-HSQC NMR spectra. […] The differences in backbone ^1H and ^15N NMR chemical shifts were monitored via 2D ^1H-^15N-HSQC NMR spectra. The weighted ^1HN and ^15N chemical shift differences were calculated according to the following equation [45, 47]: […]
# (§3) Averaged dissociation constants for the different complexes were calculated from least-squares fitting of the NMR chemical shift perturbations observed for several amino acids as a function of ligand concentration. NMR chemical shift perturbation data were analysed with the ORIGIN software package (www.originlab.com) as previously published. […]
# [3] = molecular target: T2, PDZ3 in PDZ2/3 tandem domain of PTPN13; assay: NMR titration of PDZ2/3 tandem domain, PDZ3 resonances (PDZ3 in PDZ2/3); type: binding; settings: data not shown
# Description: as §1, with “4). […]” for “4).”
# as §2, with “Typically, NMR samples contained 0.1–0.5 mM uniformly ^13C and/or ^15N-enriched protein in PBS buffer at pH 7.4 including 10% D2O [42–44].” left out
# [4] = molecular target: T3, PDZ2/3 tandem domain of PTPN13; assay: NMR titration of PDZ2/3 tandem domain with APC peptide, chemical shift perturbations and exchange regime; type: binding
# Description: as §1
# NMR spectra were acquired at 298 K on Bruker DRX 600 and AVANCE III HD 700 spectrometers. Typically, NMR samples contained 0.1–0.5 mM uniformly ^13C and/or ^15N-enriched protein in PBS buffer at pH 7.4 including 10% D2O [42–44]. All data were processed with either NMRPipe and analyzed with NMR View or TopSpin (www.bruker.com). The backbone assignments were obtained from the BioMagResBank accession numbers 15,199 (PDZ2/3) and 5131 (PDZ2). The interaction between PDZ2 and PDZ3 was analyzed upon titrating PDZ3 to isotopically ^15N-enriched PDZ2 at a molar ratio of 1:1 at 298 K by recording 2D ^1H-^15N-HSQC NMR spectra. […] The differences in backbone ^1H and ^15N NMR chemical shifts were monitored via 2D ^1H-^15N-HSQC NMR spectra. The weighted ^1HN and ^15N chemical shift differences were calculated according to the following equation [45, 47]: […]
# as §3, with “published. The error for KD values was calculated from the individual fit of several significant chemical shift perturbations found for the amide resonances located in and/or next to the canonical PDZ binding cleft.” for “published.”
# [5] = molecular target: PDZ3 domain of PTPN13; settings: single PDZ3 domain; NMR titration, 298 K, pH 7.4, PBS, DTT added; ref [12]; read-out: dissociation constant KD, PDZ3; cited from earlier work
# Excerpt: The observed differences for APC binding to PDZ2 versus tandem PDZ2/3 are not large yet still considerable.
# [6] = molecular target: T4, PDZ2 in PDZ2/3 tandem domain of PTPN13; assay: NMR titration of PDZ2/3 tandem domain, PDZ2 resonances (PDZ2 in PDZ2/3); type: binding; settings: final stoichiometric ratio APC:PDZ2/3 30:1
# Description: as §1, with “4). […]” for “4).”
# as §2, with “Typically, NMR samples contained 0.1–0.5 mM uniformly ^13C and/or ^15N-enriched protein in PBS buffer at pH 7.4 including 10% D2O [42–44].” left out
# [7] = molecular target: T5, APC peptide; assay: NMR titration
# [8] = molecular target: T6, PRK2 peptide; assay: NMR titration
# [9] = molecular target: T1, PDZ2 domain of PTPN13; assay: NMR titration of single PDZ3 domain to 15N-enriched PDZ2 domain; type: binding; settings: 15N-PDZ2, molar ratio 1:1, 2D 1H-15N-HSQC, 298 K; stoichiometry limited by solubility
# Description: Thus, we titrated the single PDZ3 domain (residues 1491–1579) to the ^15N-enriched PDZ2 domain (residues 1357–1442) and monitored their interaction by recording a series of 2D ^1H-^15N-HSQC NMR spectra (Fig. 4a). […] However, the final maximal stoichiometry of PDZ2 and PDZ3 was approx. 1:1 due to solubility issues.
# NMR spectra were acquired at 298 K on Bruker DRX 600 and AVANCE III HD 700 spectrometers. Typically, NMR samples contained 0.1–0.5 mM uniformly ^13C and/or ^15N-enriched protein in PBS buffer at pH 7.4 including 10% D2O [42–44]. All data were processed with either NMRPipe and analyzed with NMR View or TopSpin (www.bruker.com). The backbone assignments were obtained from the BioMagResBank accession numbers 15,199 (PDZ2/3) and 5131 (PDZ2). The interaction between PDZ2 and PDZ3 was analyzed upon titrating PDZ3 to isotopically ^15N-enriched PDZ2 at a molar ratio of 1:1 at 298 K by recording 2D ^1H-^15N-HSQC NMR spectra. In this study, the numbering scheme of the assigned chemical shifts for PDZ2 (5131) and PDZ23 (15199) has been shifted by one residue so that, for example, T30 according to the BMRB entry 5131 now equals T31. […] The differences in backbone ^1H and ^15N NMR chemical shifts were monitored via 2D ^1H-^15N-HSQC NMR spectra. The weighted ^1HN and ^15N chemical shift differences were calculated according to the following equation [45, 47]: […]
molecule,measurement,setting,value
CC(=O)N[C@@H](CCCCN)C(=O)N[C@@H](CCCNC(=N)N)C(=O)N[C@@H](Cc1c[nH]cn1)C(=O)N[C@@H](CO)C(=O)NCC(=O)N[C@@H](CO)C(=O)N[C@@H](Cc1ccc(O)cc1)C(=O)N[C@@H](CC(C)C)C(=O)N[C@H](C(=O)N[C@H](C(=O)N[C@@H](CO)C(=O)N[C@H](C(=O)O)C(C)C)[C@@H](C)O)C(C)C [APC],binding to single PDZ2 domain,[1],able to bind
same,NMR chemical shift perturbations of PDZ2 on peptide binding,[2],leads to NMR chemical shift differences observed along intra-domain signal pathways as previously predicted
same,peptide-induced dimerisation of PDZ2,[2]; comparison of free and APC-bound NMR spectra of individual PDZ2,exclude an APC-induced dimerisation of PDZ2
same,saturation of PDZ3 at end of titration,[3],PDZ3 was not fully saturated at the end of the titration
same,NMR chemical shift perturbations of PDZ2/3 tandem on titration,"[4]; 2D 1H-15N-HSQC, 298 K, pH 7.4","NMR chemical shift perturbations were observed for G12, L19, T31, G63, H94, L95, L97 of PDZ2 and K152 as well as S231 of PDZ3 in the tandem domain"
same,NMR exchange regime of binding to tandem PDZ2/3,"[4]; 298 K, pH 7.4",fast exchange
same,chemical shift differences between single PDZ2-APC complex and PDZ2 in PDZ2/3-APC complex,"[4]; APC peptide at molar ratio 1:30, single PDZ2 vs PDZ2 in PDZ2/3","Major NMR chemical shift perturbations were observed on the back of the PDZ2 domain, i.e. opposite to the canonical PDZ binding cleft, mainly for EF (H94, L95, L97) and for EA (L19)"
same,Kd,[5],~721 µM and 721 µM
same,saturation of PDZ2 resonances at end of titration,[6],no further chemical shift changes were observed for amide resonances originating from the PDZ2 domain
CC[C@H](C)[C@H](NC(=O)[C@H](Cc1ccc(O)cc1)NC(=O)[C@H](CC(=O)O)NC(=O)[C@H](Cc1ccccc1)NC(=O)[C@H](CC(=O)O)NC(=O)[C@H](CCCNC(=N)N)NC(=O)[C@H](Cc1ccccc1)NC(=O)[C@H](CCSC)NC(C)=O)C(=O)N[C@@H](C)C(=O)N[C@@H](CC(=O)O)C(=O)N[C@@H](Cc1c[nH]c2ccccc12)C(=O)N[C@@H](CS)C(=O)O [PRK2] (Ac-MFRDFDYIADWC-OH; C-terminus assumed),NMR chemical shift perturbations of PDZ2 on peptide binding,[2],"NMR chemical shift differences were observed for the canonical ligand binding groove of PDZ2 including G23, S24, which are also involved in peptide recognition, and S28, and G31; also recorded: Additional NMR chemical shift perturbations were observed for the β-strands EA and EF of PDZ2, located opposite to its canonical peptide binding groove"
same,Kd,[5],318 ± 47 µM
PTPN13 (PDZ2 in PDZ2/3 tandem) PDZ2 in PDZ2/3 (protein) EVELAKNDNSLGISVTGGVNTSVRHGGIYVKAVIPQGAAESDGRIHKGDRVLAVNGVSLEGATHKQAVETLRNTGQVVHLLLEKG,Kd,[7],211 µM
PTPN13 PDZ2 (protein) DIFEVELAKNDNSLGISVTGGVNTSVRHGGIYVKAVIPQGAAESDGRIHKGDRVLAVNGVSLEGATHKQAVETLRNTGQVVHLLLEKGQSP,Kd,[8],661 µM
same,Kd,[7],286 µM
PTPN13 (PDZ3 in PDZ2/3 tandem) PDZ3 in PDZ2/3 (protein) EVKLFKNSSGLGFSFSREDNLIPEQINASIVRVKKLFPGQPAAESGKIDVGDVILKVNGASLKGLSQQEVISALRGTAPEVFLLLCRP,Kd,[7],2570 µM
"PDZ3: single PDZ3 domain (residues 1491–1579) of PTPN13 (protein, UniProt Q12923 1491-1579, looked up, fragment, PDZ3 domain, single PDZ3 domain (residues 1491–1579) of PTPN13) YSFVTEENTFEVKLFKNSSGLGFSFSREDNLIPEQINASIVRVKKLFPGQPAAESGKIDVGDVILKVNGASLKGLSQQEVISALRGTAP",chemical shift differences of PDZ2 upon titration with PDZ3,[9],"Only very minor chemical shift differences could be observed, if at all; also recorded: only yielded minor chemical shift differences; also recorded: Only very minor, if at all, chemical shift differences could be observed"
